How the values were obtained:
[1] = tested on: Rattus norvegicus; assay: Anti-inflammatory activity in Carrageenan-induced paw edema in PO dosed Swiss albino rat model at 10 mg/kg assessed as inhibition in volume of edema measured after 1 hrs relative to control; type: functional
[2] = biological target: T1, Prostaglandin G/H synthase 1 (Ovis aries, UniProt P05979); assay: Inhibition of ovine COX-1 by EIA method
T1 sequence (P05979 whole entry): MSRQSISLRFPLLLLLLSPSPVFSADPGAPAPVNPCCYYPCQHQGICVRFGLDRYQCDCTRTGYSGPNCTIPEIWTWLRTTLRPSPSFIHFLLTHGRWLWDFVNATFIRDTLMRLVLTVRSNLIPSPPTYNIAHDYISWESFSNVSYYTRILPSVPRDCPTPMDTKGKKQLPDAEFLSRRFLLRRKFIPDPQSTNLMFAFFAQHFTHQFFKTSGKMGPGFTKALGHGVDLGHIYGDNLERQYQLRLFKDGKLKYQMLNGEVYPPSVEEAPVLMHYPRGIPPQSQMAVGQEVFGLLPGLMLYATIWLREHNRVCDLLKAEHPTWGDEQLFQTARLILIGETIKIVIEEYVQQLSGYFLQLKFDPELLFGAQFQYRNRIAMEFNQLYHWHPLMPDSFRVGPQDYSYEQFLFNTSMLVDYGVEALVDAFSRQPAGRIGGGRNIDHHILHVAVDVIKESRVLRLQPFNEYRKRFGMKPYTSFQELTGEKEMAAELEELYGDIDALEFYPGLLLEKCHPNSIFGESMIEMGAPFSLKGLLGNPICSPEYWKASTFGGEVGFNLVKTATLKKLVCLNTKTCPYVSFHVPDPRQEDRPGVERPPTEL

[3] = biological target: Prostaglandin G/H synthase 1 (Homo sapiens, UniProt P23219); assay: Inhibition of COX-1 (unknown origin) at 40 uM relative to control
Sequence of Prostaglandin G/H synthase 1 (Homo sapiens, UniProt P23219) (P23219 whole entry): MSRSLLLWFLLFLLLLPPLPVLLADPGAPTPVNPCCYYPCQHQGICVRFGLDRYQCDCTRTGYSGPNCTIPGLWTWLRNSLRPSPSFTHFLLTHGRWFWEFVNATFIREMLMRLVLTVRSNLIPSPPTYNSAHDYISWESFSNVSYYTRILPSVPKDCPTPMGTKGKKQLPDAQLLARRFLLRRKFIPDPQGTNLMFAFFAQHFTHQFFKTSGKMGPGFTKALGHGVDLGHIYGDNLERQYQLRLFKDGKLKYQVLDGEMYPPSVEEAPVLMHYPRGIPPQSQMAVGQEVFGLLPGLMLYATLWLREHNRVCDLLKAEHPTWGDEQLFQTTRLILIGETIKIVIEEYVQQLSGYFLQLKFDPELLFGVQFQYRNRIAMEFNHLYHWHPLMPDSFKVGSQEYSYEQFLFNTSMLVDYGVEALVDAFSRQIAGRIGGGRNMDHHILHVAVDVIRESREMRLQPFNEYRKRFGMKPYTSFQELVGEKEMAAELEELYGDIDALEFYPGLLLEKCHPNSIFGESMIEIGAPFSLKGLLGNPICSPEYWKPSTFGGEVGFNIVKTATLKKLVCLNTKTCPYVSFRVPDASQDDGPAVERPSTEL

[4] = tested on: Rattus norvegicus; assay: Anti-inflammatory activity in Carrageenan-induced rat paw edema in Wistar rat assessed as increase in paw edema volume (reference value: 1.66 +/- 0.01); type: functional
[5] = tested on: Rattus norvegicus; assay: Anti-inflammatory activity in Carrageenan-induced rat paw edema in Wistar rat assessed as increase in paw edema volume relative to control; type: functional
[6] = tested on: Rattus norvegicus; assay: Anti-inflammatory activity in Carrageenan-induced rat paw edema in Wistar rat assessed as increase in paw edema volume at 1 hr; type: functional
[7] = tested on: Rattus norvegicus; assay: Anti-inflammatory activity in Carrageenan-induced rat paw edema in Wistar rat assessed as increase in paw edema volume at 1 hr relative to control; type: functional
[8] = tested on: Rattus norvegicus; assay: Anti-inflammatory activity in Carrageenan-induced rat paw edema in Wistar rat assessed as increase in paw edema volume at 2 hr; type: functional
[9] = tested on: Rattus norvegicus; assay: Anti-inflammatory activity in Carrageenan-induced rat paw edema in Wistar rat assessed as increase in paw edema volume at 2 hr relative to control; type: functional
[10] = tested on: Rattus norvegicus; assay: Anti-inflammatory activity in Carrageenan-induced rat paw edema in Wistar rat assessed as increase in paw edema volume at 4 hr; type: functional
[11] = tested on: Rattus norvegicus; assay: Anti-inflammatory activity in Carrageenan-induced rat paw edema in Wistar rat assessed as increase in paw edema volume at 4 hr relative to control; type: functional
[12] = tested on: Rattus norvegicus; assay: Anti-inflammatory activity in Carrageenan-induced paw edema in Wistar rat assessed as inhibition of paw edema; type: functional
[13] = tested on: Rattus norvegicus; assay: Anti-inflammatory activity in Carrageenan-induced paw edema in Swiss albino rat assessed as inhibition relative to control; type: functional
[14] = tested on: Mus musculus; assay: Anti-inflammatory activity against Carrageenan-induced paw edema in mouse model assessed as inhibition of edema at 100 mg/kg measured after 4 hrs relative to control; type: functional; parameters: scale not given: the % may be the effect or the level left
[15] = tested on: Rattus norvegicus; assay: Ulcerogenic activity in Swiss albino Wistar rat assessed as ulcer lesion score at 100 mg/kg, po; type: functional
[16] = tested on: Rattus norvegicus; assay: Anti-inflammatory activity in Carrageenan-induced paw edema in Wistar albino rat assessed as inhibition of paw edema measured after 1 hr relative to control; type: functional
[17] = tested on: Rattus norvegicus; assay: Anti-inflammatory activity in Carrageenan-induced paw edema in Wistar albino rat assessed as inhibition of paw edema measured after 2 hr relative to control; type: functional
[18] = tested on: Rattus norvegicus; assay: Anti-inflammatory activity in Carrageenan-induced paw edema in Wistar albino rat assessed as inhibition of paw edema measured after 3 hr relative to control; type: functional
[19] = tested on: Rattus norvegicus; assay: Anti-inflammatory activity against Carrageenan-induced paw edema in Wistar albino rat ulcerogenic activity assessed as reduction in severity index; type: functional
[20] = Anti-inflammatory activity assessed as protein denaturation using bovine serum albumin relative to control; type: functional
[21] = Inhibition of MAPK p38 (unknown origin); parameters: species or system Homo sapiens
[22] = tested on: Rattus norvegicus; assay: Anti-inflammatory activity in Carrageenan-induced rat paw edema in Wistar rat assessed as reduction in inhibition of edema measured after 4 hrs relative to control; type: functional; parameters: scale not given: the % may be the effect or the level left
[23] = Selectivity index, ratio of IC50 for ovine COX1 to IC50 for recombinant human COX2
[24] = tested on: Rattus norvegicus; assay: Anti-ulcerative activity in aspirin induced Wistar rat ulcer model assessed as inhibition of ulcer index at 20 mg/kg,po; type: functional
[25] = tested on: Rattus norvegicus; assay: Anti-inflammatory activity in Carrageenan-induced paw edema in Wistar albino rat assessed as inhibition of edema measured after 3 hrs relative to control; type: functional
[26] = tested on: RAW264.7; assay: Anti-inflammatory activity in mouse RAW264.7 cells assessed as inhibition of LPS-induced NO production measured after 24 hrs; type: functional, cell-based; details: RAW264.7, 24 h
[27] = tested on: RAW264.7; assay: Anti-inflammatory activity in mouse RAW264.7 cells assessed as LPS-induced reduction in NO production measured after 24 hrs; type: functional, cell-based; details: RAW264.7, 24 h
[28] = tested on: Rattus norvegicus; assay: Anti-inflammatory activity in Carrageenan-induced paw edema in PO dosed rat model at 10 mg/kg assessed as inhibition of paw edema measured after 4 hrs relative to control; type: functional
[29] = tested on: Rattus norvegicus; assay: Anti-inflammatory activity in Carrageenan-induced paw edema in PO dosed rat model at 20 mg/kg assessed as inhibition of paw edema measured after 4 hrs relative to control; type: functional

In the case of Cc1c(-c2ccccc2)n(C(=O)c2ccc(Cl)cc2)c2ccc(S(C)(=O)=O)cc12, the inhibition in vivo at 10 mg/kg [1] is reported as 73.5%.

In the case of C[C@H](NC(=O)c1nc2c(cnn2-c2ccccc2)c(=O)[nH]1)c1ccccc1, the IC50 [2] is reported as 28.4 µM, the inhibition [3] is reported as 73.4% and the Activity [4] is reported as 1.05 mL. The “inhibition (INH)” value [5] was 64%, the Activity [6] was 1.5 mL and the “inhibition (INH)” value [7] was 64%. The Activity [8] was 1.69 mL, the “inhibition (INH)” value [9] was 65% and the Activity [10] was 2.01 mL. For the same compound, the “inhibition (INH)” value [11] was 64%, the ED50 [12] was 7.6 mg/kg and the “inhibition (INH)” value [13] was 51%.

Work on O=C(NCn1c(CCl)nc2ccccc21)c1ccc(Cl)cc1 yielded an Activity [14] of 66.66% and an Activity [15] of 12.25 mm.

In the case of Cc1ccccc1-c1nnc(Cn2c(CN3CCOCC3)nc3ccccc32)o1, the “inhibition (INH)” value [16] is reported as 62.29%, the “inhibition (INH)” value [17] is reported as 68.31% and the “inhibition (INH)” value [18] is reported as 31.25%. For the same compound, the Activity [19] was 0.32 mm.

Compound COc1ccc(NC(=O)c2ccc(Nc3ncnc4c3cnn4-c3ccccc3)cc2)cc1 has an Activity [20] of 80.2%, an IC50 [21] of 0.038 µM and an Activity [22] of 76.35%.

O=C(NCn1c(-c2ccccc2Cl)nc2ccccc21)c1ccc(Cl)cc1 showed an Activity [14] of 62.5% and an Activity [15] of 13.53 mm.

For CCc1c(-c2ccccc2)n(C(=O)c2ccc(F)cc2)c2ccc(S(C)(=O)=O)cc12, the Selectivity Index [23] was 65.7, the UI [24] was 7.3 and the “inhibition (INH)” value [25] was 90.5%.

Work on COc1cc(-c2cc3ccccc3nc2C(=O)c2ccc(F)cc2)cc(OC)c1OC yielded an IC50 [26] of 15.4 µM and an IC50 [27] of 7.41 µM.

Compound Cc1nn(-c2ccccc2)c2c1C(c1ccc([N+](=O)[O-])cc1)N1C=CC=NC1=N2 (centres undefined) has an inhibition in vivo at 10 mg/kg [28] of 73% and an inhibition in vivo at 20 mg/kg [29] of 80%.

With COc1ccc(C(=O)c2nc3ccccc3cc2-c2cc(OC)c(OC)c(OC)c2)cc1 the IC50 [27] was 6.7 µM.

CCCOC(=O)c1nc2c(cnn2-c2ccccc2)c(=O)[nH]1 showed an IC50 [2] of 19.5 µM, an inhibition [3] of 86% and an Activity [4] of 0.9 mL. The “inhibition (INH)” value [5] was 40%, the Activity [6] was 1.66 mL and the “inhibition (INH)” value [7] was 40%. For the same compound, the Activity [8] was 1.8 mL, the “inhibition (INH)” value [9] was 51% and the Activity [10] was 2.11 mL. The “inhibition (INH)” value [11] was 55%, the ED50 [12] was 8.3 mg/kg and the “inhibition (INH)” value [13] was 36%.
